Results from patent US11083725B2 (priority 2014, dated 2021).

Tested on: NHBE cells
Assay: Biolog metabolic array: substrate use by NHBE cells with or without CA09 infection
Assay type: cell-based, human
Conditions: for Substrate use, 590 nm absorbance normalized to zero hour, 1 hr: Biolog PMM2, 1 hr; for Substrate use, 590 nm absorbance normalized to zero hour, 5 hr: Biolog PMM2, 5 hr; for Substrate use, 590 nm absorbance normalized to zero hour, 7 hr: Biolog PMM2, 7 hr
[1] = Control (uninfected) NHBE cells
[2] = Virus (CA09-infected NHBE cells, MOI 1)
[3] = Virus: CA09-infected NHBE cells, MOI 1, Biolog PMM2
[4] = Virus (CA09, MOI 1) infected NHBE cells
[5] = Virus (CA09-infected, MOI 1) NHBE cells

| Compound | 590 nm absorbance normalized to zero hour (substrate use), 1 hr [1] | 590 nm absorbance normalized to zero hour (substrate use), 2 hr [1] | 590 nm absorbance normalized to zero hour (substrate use), 3 hr [1] | 590 nm absorbance normalized to zero hour (substrate use), 4 hr [1] | 590 nm absorbance normalized to zero hour (substrate use), 6 hr [1] | 590 nm absorbance normalized to zero hour (substrate use), 8 hr [1] | 590 nm absorbance normalized to zero hour (substrate use), 9 hr [1] | 590 nm absorbance normalized to zero hour (substrate use), 10 hr [1] | 590 nm absorbance normalized to zero hour (substrate use), 11 hr [1] | Substrate use, 590 nm absorbance normalized to zero hour, 1 hr [1] | Substrate use, 590 nm absorbance normalized to zero hour, 5 hr [1] | Substrate use, 590 nm absorbance normalized to zero hour, 7 hr [1] | 590 nm absorbance normalized to zero hour (substrate use), 1 hr [3] | 590 nm absorbance normalized to zero hour (substrate use), 2 hr [3] | 590 nm absorbance normalized to zero hour (substrate use), 3 hr [3] | 590 nm absorbance normalized to zero hour (substrate use), 4 hr [3] | 590 nm absorbance normalized to zero hour (substrate use), 5 hr [3] | 590 nm absorbance normalized to zero hour (substrate use), 6 hr [3] | 590 nm absorbance normalized to zero hour (substrate use), 7 hr [3] | 590 nm absorbance normalized to zero hour (substrate use), 8 hr [3] | further results |
| --- | --- | --- | --- | --- | --- | --- | --- | --- | --- | --- | --- | --- | --- | --- | --- | --- | --- | --- | --- | --- | --- |
| OC[C@H]1O[C@@H](OC[C@H]2OC(O)[C@H](O)[C@@H](O)[C@@H]2O)[C@H](O)[C@@H](O)[C@@H]1O (stereo partly shown) [Gentio-biose] | 1.71 | 2.34 | 2.83 | 3.01 | 4.46 | 4.57 | 5.20 | 5.59 | 5.94 | 1.71 | 3.72 | 4.35 | 1.23 | 1.38 | 1.44 | 1.47 | 1.55 | 1.62 | 1.66 | 1.72 | 590 nm absorbance normalized to zero hour (substrate use), 1 hr [2]: 1.23; 590 nm absorbance normalized to zero hour (substrate use), 2 hr [2]: 1.38; 590 nm absorbance normalized to zero hour (substrate use), 3 hr [2]: 1.44; 590 nm absorbance normalized to zero hour (substrate use), 4 hr [2]: 1.47; 590 nm absorbance normalized to zero hour (substrate use), 5 hr [2]: 1.55; 590 nm absorbance normalized to zero hour (substrate use), 6 hr [2]: 1.62; 590 nm absorbance normalized to zero hour (substrate use), 7 hr [2]: 1.66; 590 nm absorbance normalized to zero hour (substrate use), 8 hr [2]: 1.72; 590 nm absorbance normalized to zero hour (substrate use), 9 hr [2]: 1.79; 590 nm absorbance normalized to zero hour (substrate use), 10 hr [2]: 1.85; 590 nm absorbance normalized to zero hour (substrate use), 11 hr [2]: 1.99; 590 nm absorbance normalized to zero hour (substrate use), 9 hr [3]: 1.79; 590 nm absorbance normalized to zero hour (substrate use), 10 hr [3]: 1.85; 590 nm absorbance normalized to zero hour (substrate use), 11 hr [3]: 1.99 |
| OCC(O)CO [Glycerol] | 1.36 | 1.42 | 1.19 | 1.18 | 0.68 | 1.04 | 1.08 | 1.04 | 1.08 | 1.36 | 1.27 | 1.06 |  |  |  |  |  |  |  |  | Substrate use, 590 nm absorbance normalized to zero hour, 11 hr (Control (uninfected) NHBE cells, Biolog PMM2, 11 hr): 1.04; Substrate use, 590 nm absorbance normalized to zero hour, 1 hr [4]: 1.04; Substrate use, 590 nm absorbance normalized to zero hour, 2 hr (Virus (CA09, MOI 1) infected NHBE cells, Biolog PMM2, 2 hr): 1.04; Substrate use, 590 nm absorbance normalized to zero hour, 3 hr (Virus (CA09, MOI 1) infected NHBE cells, Biolog PMM2, 3 hr): 1.04; Substrate use, 590 nm absorbance normalized to zero hour, 4 hr (Virus (CA09, MOI 1) infected NHBE cells, Biolog PMM2, 4 hr): 1.04; Substrate use, 590 nm absorbance normalized to zero hour, 5 hr [4]: 3.55; Substrate use, 590 nm absorbance normalized to zero hour, 7 hr [4]: 3.91; 590 nm absorbance normalized to zero hour (substrate use), 1 hr [5]: 2.05; 590 nm absorbance normalized to zero hour (substrate use), 2 hr [5]: 2.67; 590 nm absorbance normalized to zero hour (substrate use), 3 hr [5]: 3.09; 590 nm absorbance normalized to zero hour (substrate use), 4 hr [5]: 3.24; 590 nm absorbance normalized to zero hour (substrate use), 6 hr [5]: 3.71; 590 nm absorbance normalized to zero hour (substrate use), 8 hr [5]: 4.11; 590 nm absorbance normalized to zero hour (substrate use), 9 hr [5]: 4.51; 590 nm absorbance normalized to zero hour (substrate use), 10 hr [5]: 4.63; 590 nm absorbance normalized to zero hour (substrate use), 11 hr [5]: 5.09 |
| CCCCCC(=O)O [Hexanoic Acid] | 1.35 | 1.47 | 2.74 | 2.80 | 1.04 | 4.11 | 4.10 | 4.13 | 3.16 | 1.35 | 1.18 | 4.15 | 0.25 | 0.28 | 0.31 | 0.33 | 0.36 | 0.37 | 0.37 | 0.38 | 590 nm absorbance normalized to zero hour (substrate use), 1 hr [2]: 0.25; 590 nm absorbance normalized to zero hour (substrate use), 2 hr [2]: 0.28; 590 nm absorbance normalized to zero hour (substrate use), 3 hr [2]: 0.31; 590 nm absorbance normalized to zero hour (substrate use), 4 hr [2]: 0.33; 590 nm absorbance normalized to zero hour (substrate use), 5 hr [2]: 0.36; 590 nm absorbance normalized to zero hour (substrate use), 6 hr [2]: 0.37; 590 nm absorbance normalized to zero hour (substrate use), 7 hr [2]: 0.37; 590 nm absorbance normalized to zero hour (substrate use), 8 hr [2]: 0.38; 590 nm absorbance normalized to zero hour (substrate use), 9 hr [2]: 0.36; 590 nm absorbance normalized to zero hour (substrate use), 10 hr [2]: 0.40; 590 nm absorbance normalized to zero hour (substrate use), 11 hr [2]: 0.41; 590 nm absorbance normalized to zero hour (substrate use), 9 hr [3]: 0.36; 590 nm absorbance normalized to zero hour (substrate use), 10 hr [3]: 0.40; 590 nm absorbance normalized to zero hour (substrate use), 11 hr [3]: 0.41 |
| O=c1[nH]cnc2c1ncn2[C@@H]1O[C@H](CO)[C@@H](O)[C@H]1O [Inosine] | 3.56 | 5.67 | 2.78 | 4.11 | 2.23 | 4.46 | 6.41 | 6.92 | 5.14 | 3.56 | 4.02 | 6.19 | 1.16 | 1.78 | 2.23 | 2.45 | 3.06 | 3.30 | 3.54 | 3.88 | 590 nm absorbance normalized to zero hour (substrate use), 1 hr [5]: 1.16; 590 nm absorbance normalized to zero hour (substrate use), 2 hr [5]: 1.78; 590 nm absorbance normalized to zero hour (substrate use), 3 hr [5]: 2.23; 590 nm absorbance normalized to zero hour (substrate use), 4 hr [5]: 2.45; 590 nm absorbance normalized to zero hour (substrate use), 5 hr [5]: 3.06; 590 nm absorbance normalized to zero hour (substrate use), 6 hr [5]: 3.30; 590 nm absorbance normalized to zero hour (substrate use), 7 hr [5]: 3.54; 590 nm absorbance normalized to zero hour (substrate use), 8 hr [5]: 3.88; 590 nm absorbance normalized to zero hour (substrate use), 9 hr [5]: 4.33; 590 nm absorbance normalized to zero hour (substrate use), 10 hr [5]: 3.83; 590 nm absorbance normalized to zero hour (substrate use), 11 hr [5]: 4.20; 590 nm absorbance normalized to zero hour (substrate use), 9 hr [3]: 4.33; 590 nm absorbance normalized to zero hour (substrate use), 10 hr [3]: 3.83; 590 nm absorbance normalized to zero hour (substrate use), 11 hr [3]: 4.20 |
